row,melting point [°C],Structure (SMILES)
1,151 to 152,O=C(NC1CC1)c1nc(-c2ccccc2)c(-c2ccc(=O)n(Cc3ccccc3)n2)s1
2,45 to 48,CC(C)(C)OC(=O)N1CCC(C(=O)Nc2ccccc2Oc2ccc(OC(F)(F)F)cc2)CC1
3,123 to 126,COC(=O)/C=C/c1nc(C(=O)OC)ccc1OC
4,166 to 168,O=C(Nc1cccnc1)NC(NC(=O)c1ccc(Cl)cc1)C(Cl)(Cl)Cl (stereo unspecified)
5,118 to 121,CC(O)Cc1nc(Cl)ccc1N (stereo unspecified)
6,215 to 216,CCCCn1nc2c(N)nc3ccccc3c2c1CC
7,120,COc1ccccc1C(c1ccccc1)c1cccc(-c2ccccc2)c1O (stereo unspecified)
8,122,Clc1ccc(-c2ccc(C3=NC[C@H](c4ccccc4)O3)cc2)cc1
9,152 to 153,CCCN(C)S(=O)(=O)c1nnc(NC(=O)N(C)C)s1
10,186 to 187,CC(C)(C)c1cc(CCc2ccccc2NC(=O)NC2CCCC2)cc(C(C)(C)C)c1O
11,210 to 211,N#Cc1ccc(Nc2ccncc2[N+](=O)[O-])cc1
12,120 to 122,CCOC(=O)CCC1(NC(=O)c2ccc(Cl)c(Cl)c2)C(=O)N(CCCc2ccccc2)c2ccccc21 (stereo unspecified)
13,154 to 157,COc1ccc(-c2cn(C)cc(-c3ccccc3)c2=O)cc1OC
14,170 to 172,CCN(CC)c1ccc(NC(=O)N(C[C@@H]2CCC[C@H](CN(C(=O)Nc3ccc(N(CC)CC)cc3)C3CCCCC3)C2)C2CCCCC2)cc1
15,238 to 239,CCOC(=O)c1cc(-c2ccccc2)n(-c2cccc(C(N)=O)c2)c1C
16,216,COC(=O)C1=C(C)NC(C=O)=C(C(=O)OC)C1c1cccc2c(=O)c(C)c(-c3ccccc3)oc12 (stereo unspecified)
17,180 to 181,O=C(O)CN1C(=O)C(c2ccccc2)c2ccccc21 (stereo unspecified)
18,237 to 242,O=C1NC(=O)c2c1c(-c1ccccc1Cl)cc1c2c2cc(O)ccc2n1CCS(=O)c1ncn[nH]1 (stereo unspecified)
19,173 to 175,Cc1c(Cl)ccc(C(=O)O)c1Cl
20,154 to 155,CCCCCCNC(=O)Nc1cccc2c1C1(COc3cc4c(cc31)OCCO4)C(=O)N2C (stereo unspecified)
21,92 to 93,COc1ccc2c(c1)OCC(NC(=O)c1cc(Cl)ccc1OC)C2 (stereo unspecified)

row,melting point [°C],Structure (SMILES)
1,182,Cn1c(=O)cc(-c2cccc(Cl)c2)c2cc(Br)ccc21
2,158 to 160,COc1ccc(NC(=O)c2ccc(Br)cc2)cc1N1CCN(C)CC1
3,116 to 118,O=C(CNC(=O)c1ccc([N+](=O)[O-])cc1[N+](=O)[O-])OCc1ccccc1
4,151 to 152,O=C(N[C@H](Cc1ccc(C(F)(F)F)cc1)[C@@H](O)c1cccc(F)c1)c1cccc2c1C=CCCC2 (racemic)
5,223 to 227,COc1ccc(-c2ccc3nc(N)c4ncn(CC(C)C)c4c3c2)c(OC)c1
6,229 to 230,OCc1c(F)cccc1-c1ccc2nc(-c3ccc(Cl)cc3)cn2c1
7,239 to 240,COc1cc(Nc2c(C#N)cnc3cc(-c4ccc(CN5CCC(CC(=O)O)CC5)cc4)ccc23)c(Cl)cc1Cl
8,188 to 191,CCN1C(=O)C(C)(C)C(=O)Nc2ccc(C=O)cc21
9,218 to 220,COc1ccc(Cl)cc1C1(O)C(=O)Nc2ccc(C(F)(F)F)cc21 (stereo unspecified)
10,159,O=C1N[C@H]2OC(c3ccccc3)=N[C@@H]12
11,215 to 217,CSc1nnc(-c2cc3c([nH]c2=O)CCN(Cc2ccccc2)C3)o1
12,114,O=C(O)CCS(=O)CCC(=O)O
13,174 to 175,Cc1nc2c(c(=O)[nH]1)CC(C)C2 (stereo unspecified)
14,208 to 209,CCn1c(=O)c2[nH]c(C(C)C)nc2n(Cc2ccc(OC)c(OC3CCCC3)c2)c1=O
15,210 to 212,CCn1c(COc2ccc(CC3SC(=O)NC3=O)cc2)nc2cccnc21 (stereo unspecified)
16,46 to 47,CSc1ccc(C2=C(c3ccc(F)cc3)CCC2)cc1
17,106,O=[N+]([O-])c1cc(CCl)cc([N+](=O)[O-])c1CCl
18,192 to 194,CC1=CC(c2ccccc2Cl)C(c2nnco2)=C(C)N1 (stereo unspecified)
19,114 to 115,Cc1c(C)n(CC2CC2C)c2c(OCc3ccc(F)cc3)nncc12 (stereo unspecified)
20,149 to 150,CCc1cccc(C)c1NC(=O)CCBr
21,201 to 203,CCOC(=O)C=CNc1oc2ccc(CC)cc2c(=O)c1C=O

# The remaining lines, values behind:
row,Structure (SMILES),melting point [°C]
1,CCn1cc(Cl)c(=O)[nH]c1=O,217 to 220
2,C1=NNC(c2ccccc2)c2ccccc21 (stereo unspecified),79
3,CCCN(CCC)Cc1noc(-c2ncn3c2[C@@H]2CCCN2C(=O)c2c(Cl)cccc2-3)n1,155 to 158
4,CN(C)CC(C(O)c1ccc([N+](=O)[O-])cc1)N1CCC(Cc2ccccc2)CC1 (stereo unspecified),132 to 135
5,CC1CCN(c2cc3nc(C(C)(C)C)sc3cc2N)CC1,146 to 148
6,O=C1Nc2ccc(Cl)cc2C1c1ccccc1Cl (stereo unspecified),198 to 200
7,Cc1nc(C)c(C(C)(O)c2ccccc2)s1 (stereo unspecified),131 to 132
8,Cc1cccc(Cl)c1NC(=O)Nc1cc(N[C@H]2CC[C@H](O)CC2)ncn1,149 to 152
9,CCOC(=O)C(Cc1ccc(C(F)(F)F)cc1)C(=O)c1ccc(Oc2ccccc2)cc1 (stereo unspecified),67 to 68
10,C=CCc1c(OC(C)=O)c(C)cc2ccc(=O)oc12,110 to 111
11,Cc1nc(C(F)(F)F)ccc1C(=O)C1=C(O)C2CCC(C2)C1=O (stereo unspecified),75 to 77
12,NC(=S)N1CCN(C=O)CC1,118
13,CCC1(CC)OC(=O)c2cc(N)ccc21,153 to 154
14,CC1(C)OC(C=Cc2ccc(F)cc2F)=CC1=O,98.5 to 100
15,COc1cc2[nH]c(=O)n(CC(C)S)c(=O)c2cc1OC (stereo unspecified),262 to 264
16,CC1(C)CCCC2(C)C3CC=C(C=O)CC(=O)C3CCC12 (stereo unspecified),87 to 88
17,CCN(c1nc(C)cc(C(=O)N2CCOCC2)n1)c1ccc(C(C)C)cc1Br,145
18,COc1ccc(Cl)cc1C1(F)C(=O)Nc2cc(I)ccc21 (stereo unspecified),205 to 210
19,CC(C)(C)OC(=O)[C@@H]1CS[C@H](c2c(F)cccc2Cl)N1C(=O)CNC(=O)Nc1cccc(C(=O)O)c1,148
20,CNCC(O)c1ccc(CO)cc1 (stereo unspecified),80 to 81

row,Structure (SMILES),melting point [°C]
1,O=C1N=CN(CC2CCCCC2)C12CCN(Cc1ccccc1)CC2,117 to 118
2,CCCCc1nc(CO)c(C(=O)N2CCC[C@H]2C(=O)OC)n1Cc1ccc(-c2ccccc2C(=O)O)cc1,> 120
3,CCOC(=O)Cc1c(-c2ccc(Cl)cc2)nn2cc(Cl)cnc12,139 to 140
4,O=[N+]([O-])c1cc(Cl)cc(O)c1O,108 to 111
5,COc1cc(N)c2nccc(C)c2c1OCCCCCc1ccccc1,65 to 66
6,C(=Cc1ccccc1)C=NC1CCOc2ccccc21 (stereo unspecified),106 to 107
7,COc1cc(OCc2ccccn2)ccc1/C=C/c1cc(/C=C/c2cc3ccccc3[nH]2)n[nH]1,151 to 152
8,COc1ccccc1NC(=O)NCc1cccc2c1CN(C1CCC(=O)NC1=O)C2=O (stereo unspecified),187 to 189
9,Cc1cc(=O)[nH]c2ccc(OCCCN3CCN(Cc4ccc(C(C)(C)C)cc4)CC3)cc12,171 to 172
10,CC(C)CC(Cn1cc(Sc2ccccc2)c2ccccc21)N(O)C(N)=O (stereo unspecified),57
11,CC[Si](CC)(CC)OC1CC2=CCC3C4CCC(=O)C4(C)CCC3C2(C)C(O[Si](CC)(CC)CC)C1 (stereo unspecified),99 to 100
12,CN1CCN(CCCc2c[nH]c(-c3ccc(F)cc3)c2-c2ccncc2)CC1,190 to 192
13,Clc1nc2ccccc2c2[nH]cnc12,257 to 258
14,Oc1cc(O)nc(C(F)(F)F)n1,255 to 256
15,Cc1nnc(C)n1NC(=N)c1ccc(Cl)cc1,303 to 306
16,COC(=O)c1cc(-c2ccncc2)cc2c1OC(c1ccccc1)(c1ccccc1)O2,151 to 152
17,COc1cc(CN2CC[C@H](O)C2)ccc1-c1nc2c(N[C@H]3[C@@H](C(N)=O)[C@@H]4C=C[C@H]3C4)c(Cl)cnc2[nH]1,205 to 208
18,CCOC(=O)c1sc(Cl)nc1-c1ccc(Cl)cc1,119 to 120
19,CSc1ccc(-c2cc(C#N)c(=O)[nH]c2C)cc1,275 to 276
20,Cc1cc(SCc2ccc(OCc3ccc(Cl)cc3)cc2)ccc1OCC(=O)O,164

row,Structure (SMILES),melting point [°C]
1,COc1cc2c(c(OC)c1OC)-c1ccc([N+](=O)[O-])cc1COC2,161
2,Cc1c2n(c3ccc(Br)cc13)CCCC2O (stereo unspecified),120 to 123
3,COC(=O)C(Sc1ccc(Cl)cc1)c1ccc(Oc2ccc(Cl)cc2)cc1 (stereo unspecified),71 to 75
4,Cc1c(Cl)nn(-c2ccc(Cl)cc2)c1Cl,90 to 91.5
5,O=S1(=O)c2cccc3cccc(c23)N1CCN1CCC(CCn2ccc3ccccc32)CC1,152
6,O=C(Nc1ccc(NCc2ccccc2)cc1)C(=O)N1CCC(Cc2ccc(F)cc2)CC1,145 to 148
7,Cc1nc(N)c2nc(C)n(CCCCNS(C)(=O)=O)c2c1C,228 to 230
8,CCCc1nn(-c2ccc(C(F)(F)F)cn2)cc1CCCOc1cc(CC(=O)O)cc(OC)c1,139 to 140
9,COc1ccc(OC)c(C(=S)N2CCOCC2)c1,127
10,COC(=O)CCC(C#N)(CCC(=O)OC)c1cccc(Cl)c1,78.5 to 80
11,CC(C)(C)[Si](C)(C)O[C@@H]1CO[C@H](c2cccnc2)[C@@H]1CCC(=O)O,93 to 94
12,Cc1nc(NC(=O)NC(=O)c2c(Cl)cccc2Cl)cnc1-c1ccc(Br)cc1,225 to 227
13,CSC1=Nc2ccccc2Cn2cccc21,148 to 150
14,CNC(=O)c1cc(-c2ccc(OC)cc2)nn(CC(=O)NCCO)c1=O,240 to 241
15,O=[N+]([O-])c1oc2ccc(CN3CCN(c4ccccc4)CC3)cc2c1-c1ccccc1,155 to 157
16,CN1C(=O)C(C)(C)N=C(c2ccccc2Cl)c2c1ccc(N)c2Cl,195 to 196
17,CCOC(=O)c1ccc(OCc2csc3nc(C(=O)OCC)[nH]c(=O)c23)cc1,205 to 208
18,CSc1ccc(C(C)Nc2nc(NC(C)=O)nc(C(F)(F)F)n2)cc1 (stereo unspecified),132
19,Cc1cccc2c1S(=O)(=O)N=C2C1=C(O)C(C(C)(C)C)N(Cc2ccc(F)cc2)C1=O (stereo unspecified),> 250

# — a melting point compilation (Tetko et al.; mined from patent text by program, amines drawn as free bases though some values may be those of a salt)
